Experimental data as given in patent US20220348565A1, “PHARMACEUTICAL COMPOUNDS” (SENTINEL ONCOLOGY LIMITED, priority 2019, published 2022).

Columns and labels:
Experiment in all cases: DiscoverX KinomeScreen kinase selectivity competition binding assay
[1] = molecular target: T1, panel of ninety-seven kinases (Homo sapiens, UniProt P08069); conditions: IGF1R; read-out: % Ctrl @ 3 μM
T1 construct: purchased DiscoverX; host or cells: T7 phage in E. coli (BL21-derived) for most kinases; HEK-293 for the rest
Summary of the method: (§1)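 Site-directed competition binding: kinase (T7 phage-tagged or HEK-293-expressed, DNA-tagged) captured on immobilized biotinylated ligand beads, with compound at 3000 nM. Bound kinase eluted and quantified by qPCR. Reported as % Ctrl, with DMSO as 100% and control compound as 0%.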

[2] = molecular target: T2, panel of ninety-seven kinases (Homo sapiens, UniProt P48736); conditions: PIK3CG; read-out: % Ctrl @ 3 μM
T2 construct: purchased DiscoverX; host or cells: T7 phage in E. coli (BL21-derived) for most kinases; HEK-293 for the rest
Summary of the method: as §1

[3] = molecular target: T3, panel of ninety-seven kinases (Homo sapiens, UniProt Q13177); conditions: PAK2; read-out: % Ctrl @ 3 μM
T3 construct: purchased DiscoverX; host or cells: T7 phage in E. coli (BL21-derived) for most kinases; HEK-293 for the rest
Summary of the method: as §1

[4] = molecular target: T4, panel of ninety-seven kinases (Homo sapiens, UniProt O14920); conditions: IKBKB; read-out: % Ctrl @ 3 μM
T4 construct: purchased DiscoverX; host or cells: T7 phage in E. coli (BL21-derived) for most kinases; HEK-293 for the rest
Summary of the method: as §1

[5] = molecular target: T5, panel of ninety-seven kinases (Homo sapiens, UniProt Q8NI60); conditions: CABC1; read-out: % Ctrl @ 3 μM
T5 construct: purchased DiscoverX; host or cells: T7 phage in E. coli (BL21-derived) for most kinases; HEK-293 for the rest
Summary of the method: as §1

[6] = molecular target: T6, panel of ninety-seven kinases (Homo sapiens, UniProt Q9Y463); conditions: DYRK1B; read-out: % Ctrl @ 3 μM
T6 construct: purchased DiscoverX; host or cells: T7 phage in E. coli (BL21-derived) for most kinases; HEK-293 for the rest
Summary of the method: as §1

[7] = molecular target: T7, panel of ninety-seven kinases (Homo sapiens, UniProt P04626); conditions: ERBB2; read-out: % Ctrl @ 3 μM
T7 construct: purchased DiscoverX; host or cells: T7 phage in E. coli (BL21-derived) for most kinases; HEK-293 for the rest
Summary of the method: as §1

[8] = molecular target: T8, panel of ninety-seven kinases (Homo sapiens, UniProt P22607); conditions: FGFR3; read-out: % Ctrl @ 3 μM
T8 construct: purchased DiscoverX; host or cells: T7 phage in E. coli (BL21-derived) for most kinases; HEK-293 for the rest
Summary of the method: as §1

[9] = molecular target: T9, panel of ninety-seven kinases (Homo sapiens, UniProt O15075); conditions: DCLK1; read-out: % Ctrl @ 3 μM
T9 construct: purchased DiscoverX; host or cells: T7 phage in E. coli (BL21-derived) for most kinases; HEK-293 for the rest
Summary of the method: as §1

[10] = molecular target: T10, panel of ninety-seven kinases (Homo sapiens, UniProt P06213); conditions: INSR; read-out: % Ctrl @ 3 μM
T10 construct: purchased DiscoverX; host or cells: T7 phage in E. coli (BL21-derived) for most kinases; HEK-293 for the rest
Summary of the method: as §1

[11] = molecular target: T11, panel of ninety-seven kinases (Homo sapiens, UniProt O15111); conditions: CHUK; read-out: % Ctrl @ 3 μM
T11 construct: purchased DiscoverX; host or cells: T7 phage in E. coli (BL21-derived) for most kinases; HEK-293 for the rest
Summary of the method: as §1

[12] = molecular target: T12, panel of ninety-seven kinases (Homo sapiens, UniProt P08581); conditions: MET; read-out: % Ctrl @ 3 μM
T12 construct: purchased DiscoverX; host or cells: T7 phage in E. coli (BL21-derived) for most kinases; HEK-293 for the rest
Summary of the method: as §1

[13] = molecular target: T13, panel of ninety-seven kinases (Homo sapiens, UniProt Q9H4B4); conditions: PLK3; read-out: % Ctrl @ 3 μM
T13 construct: purchased DiscoverX; host or cells: T7 phage in E. coli (BL21-derived) for most kinases; HEK-293 for the rest
Summary of the method: as §1

[14] = molecular target: T14, panel of ninety-seven kinases (Homo sapiens, UniProt P07333); conditions: CSF1R; read-out: % Ctrl @ 3 μM
T14 construct: purchased DiscoverX; host or cells: T7 phage in E. coli (BL21-derived) for most kinases; HEK-293 for the rest
Summary of the method: as §1

[15] = molecular target: T15, panel of ninety-seven kinases (Homo sapiens, UniProt O00750); conditions: PIK3C2B; read-out: % Ctrl @ 3 μM
T15 construct: purchased DiscoverX; host or cells: T7 phage in E. coli (BL21-derived) for most kinases; HEK-293 for the rest
Summary of the method: as §1

[16] = molecular target: T16, panel of ninety-seven kinases (Homo sapiens, UniProt Q9UM73); conditions: ALK; read-out: % Ctrl @ 3 μM
T16 construct: purchased DiscoverX; host or cells: T7 phage in E. coli (BL21-derived) for most kinases; HEK-293 for the rest
Summary of the method: as §1

[17] = molecular target: T17, panel of ninety-seven kinases (Homo sapiens, UniProt P12931); conditions: SRC; read-out: % Ctrl @ 3 μM
T17 construct: purchased DiscoverX; host or cells: T7 phage in E. coli (BL21-derived) for most kinases; HEK-293 for the rest
Summary of the method: as §1

[18] = molecular target: T18, panel of ninety-seven kinases (Homo sapiens, UniProt Q9H093); conditions: NUAK2; read-out: % Ctrl @ 3 μM
T18 construct: purchased DiscoverX; host or cells: T7 phage in E. coli (BL21-derived) for most kinases; HEK-293 for the rest
Summary of the method: as §1

[19] = molecular target: T19, panel of ninety-seven kinases (Homo sapiens, UniProt O96013); conditions: PAK4; read-out: % Ctrl @ 3 μM
T19 construct: purchased DiscoverX; host or cells: T7 phage in E. coli (BL21-derived) for most kinases; HEK-293 for the rest
Summary of the method: as §1

[20] = molecular target: T20, panel of ninety-seven kinases (Homo sapiens, UniProt P31749); conditions: AKT1; read-out: % Ctrl @ 3 μM
T20 construct: purchased DiscoverX; host or cells: T7 phage in E. coli (BL21-derived) for most kinases; HEK-293 for the rest
Summary of the method: as §1

[21] = molecular target: T21, panel of ninety-seven kinases (Homo sapiens, UniProt O14757); conditions: CHEK1; read-out: % Ctrl @ 3 μM
T21 construct: purchased DiscoverX; host or cells: T7 phage in E. coli (BL21-derived) for most kinases; HEK-293 for the rest
Summary of the method: as §1

T2 sequence (P48736 whole entry): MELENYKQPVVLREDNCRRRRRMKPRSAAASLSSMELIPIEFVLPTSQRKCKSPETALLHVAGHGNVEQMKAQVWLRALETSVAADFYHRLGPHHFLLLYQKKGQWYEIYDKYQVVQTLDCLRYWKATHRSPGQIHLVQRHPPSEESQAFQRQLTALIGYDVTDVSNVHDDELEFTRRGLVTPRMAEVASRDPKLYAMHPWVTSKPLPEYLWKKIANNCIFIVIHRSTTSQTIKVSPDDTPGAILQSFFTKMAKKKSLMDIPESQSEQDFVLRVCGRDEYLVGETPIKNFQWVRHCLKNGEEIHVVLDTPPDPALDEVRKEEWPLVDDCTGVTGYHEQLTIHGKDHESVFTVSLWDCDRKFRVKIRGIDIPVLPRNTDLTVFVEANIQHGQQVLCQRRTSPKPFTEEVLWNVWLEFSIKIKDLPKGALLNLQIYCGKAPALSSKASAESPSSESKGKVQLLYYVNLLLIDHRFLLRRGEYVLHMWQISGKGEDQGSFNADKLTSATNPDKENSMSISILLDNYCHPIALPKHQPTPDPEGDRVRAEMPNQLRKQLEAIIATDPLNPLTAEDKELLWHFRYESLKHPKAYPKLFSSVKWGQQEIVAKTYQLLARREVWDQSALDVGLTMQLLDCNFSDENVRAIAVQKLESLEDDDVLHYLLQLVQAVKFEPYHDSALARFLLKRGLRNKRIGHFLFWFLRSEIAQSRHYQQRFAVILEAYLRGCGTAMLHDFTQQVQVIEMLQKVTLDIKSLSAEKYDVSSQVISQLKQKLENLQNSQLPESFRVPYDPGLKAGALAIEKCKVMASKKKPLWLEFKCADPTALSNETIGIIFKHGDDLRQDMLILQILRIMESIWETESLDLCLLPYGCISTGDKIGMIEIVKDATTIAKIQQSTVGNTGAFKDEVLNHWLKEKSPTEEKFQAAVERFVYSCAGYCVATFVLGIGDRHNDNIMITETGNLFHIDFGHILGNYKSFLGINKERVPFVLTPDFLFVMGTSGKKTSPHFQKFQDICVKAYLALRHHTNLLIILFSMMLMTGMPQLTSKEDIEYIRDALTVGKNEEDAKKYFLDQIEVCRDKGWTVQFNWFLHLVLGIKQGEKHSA
T21 sequence (O14757 whole entry): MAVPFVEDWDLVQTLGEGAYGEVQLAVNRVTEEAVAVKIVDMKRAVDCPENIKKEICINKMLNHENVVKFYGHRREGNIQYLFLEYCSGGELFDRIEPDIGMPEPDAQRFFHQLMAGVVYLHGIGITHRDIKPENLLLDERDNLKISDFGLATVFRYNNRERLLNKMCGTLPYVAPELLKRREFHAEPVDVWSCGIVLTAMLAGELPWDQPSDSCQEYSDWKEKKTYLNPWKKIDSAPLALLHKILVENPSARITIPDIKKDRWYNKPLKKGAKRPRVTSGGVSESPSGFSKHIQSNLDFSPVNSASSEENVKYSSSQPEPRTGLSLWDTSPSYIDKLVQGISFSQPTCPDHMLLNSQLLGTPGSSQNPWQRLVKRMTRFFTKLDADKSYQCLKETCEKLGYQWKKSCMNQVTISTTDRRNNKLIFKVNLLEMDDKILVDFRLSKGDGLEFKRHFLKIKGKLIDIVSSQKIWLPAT
T15 sequence (O00750 whole entry): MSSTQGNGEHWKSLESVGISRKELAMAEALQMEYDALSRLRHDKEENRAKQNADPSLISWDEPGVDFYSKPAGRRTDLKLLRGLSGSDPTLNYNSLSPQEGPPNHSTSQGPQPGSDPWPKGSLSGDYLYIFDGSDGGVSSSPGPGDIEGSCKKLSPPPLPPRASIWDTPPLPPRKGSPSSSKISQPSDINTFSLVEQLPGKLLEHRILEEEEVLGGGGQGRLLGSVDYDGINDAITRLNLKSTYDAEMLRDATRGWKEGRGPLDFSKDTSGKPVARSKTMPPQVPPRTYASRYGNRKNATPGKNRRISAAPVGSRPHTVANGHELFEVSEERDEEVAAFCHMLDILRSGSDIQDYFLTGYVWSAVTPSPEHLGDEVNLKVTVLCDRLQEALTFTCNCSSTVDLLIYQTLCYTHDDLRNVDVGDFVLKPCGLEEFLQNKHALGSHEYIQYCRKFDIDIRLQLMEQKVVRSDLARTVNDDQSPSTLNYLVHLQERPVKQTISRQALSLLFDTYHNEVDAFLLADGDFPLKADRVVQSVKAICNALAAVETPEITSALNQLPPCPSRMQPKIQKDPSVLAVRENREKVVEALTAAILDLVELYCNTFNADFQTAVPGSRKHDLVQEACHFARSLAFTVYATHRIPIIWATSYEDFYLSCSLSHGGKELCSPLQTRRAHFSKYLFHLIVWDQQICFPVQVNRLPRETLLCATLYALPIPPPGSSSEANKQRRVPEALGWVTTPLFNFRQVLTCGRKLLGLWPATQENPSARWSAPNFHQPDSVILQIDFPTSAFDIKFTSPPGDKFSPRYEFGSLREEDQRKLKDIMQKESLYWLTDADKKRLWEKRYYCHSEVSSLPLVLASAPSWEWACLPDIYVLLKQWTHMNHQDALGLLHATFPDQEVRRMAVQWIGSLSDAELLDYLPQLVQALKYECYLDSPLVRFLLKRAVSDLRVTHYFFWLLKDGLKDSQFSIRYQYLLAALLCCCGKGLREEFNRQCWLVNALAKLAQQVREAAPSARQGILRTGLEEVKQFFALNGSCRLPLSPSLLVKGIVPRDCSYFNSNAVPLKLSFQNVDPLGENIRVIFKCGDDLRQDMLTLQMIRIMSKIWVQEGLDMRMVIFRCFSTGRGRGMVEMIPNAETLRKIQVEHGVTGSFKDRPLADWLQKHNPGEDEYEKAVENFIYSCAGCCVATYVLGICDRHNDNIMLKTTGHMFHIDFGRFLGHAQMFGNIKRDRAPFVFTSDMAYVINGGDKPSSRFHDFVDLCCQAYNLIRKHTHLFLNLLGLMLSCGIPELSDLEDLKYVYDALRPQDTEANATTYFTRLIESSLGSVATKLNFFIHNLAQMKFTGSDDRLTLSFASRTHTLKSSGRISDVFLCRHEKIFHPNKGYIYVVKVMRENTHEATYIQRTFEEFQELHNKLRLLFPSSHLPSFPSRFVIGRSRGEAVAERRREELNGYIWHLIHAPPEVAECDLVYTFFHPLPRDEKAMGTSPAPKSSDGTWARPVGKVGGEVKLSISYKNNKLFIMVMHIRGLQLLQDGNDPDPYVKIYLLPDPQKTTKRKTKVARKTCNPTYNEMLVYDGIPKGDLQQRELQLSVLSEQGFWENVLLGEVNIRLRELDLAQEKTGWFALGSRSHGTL
T17 sequence (P12931 whole entry): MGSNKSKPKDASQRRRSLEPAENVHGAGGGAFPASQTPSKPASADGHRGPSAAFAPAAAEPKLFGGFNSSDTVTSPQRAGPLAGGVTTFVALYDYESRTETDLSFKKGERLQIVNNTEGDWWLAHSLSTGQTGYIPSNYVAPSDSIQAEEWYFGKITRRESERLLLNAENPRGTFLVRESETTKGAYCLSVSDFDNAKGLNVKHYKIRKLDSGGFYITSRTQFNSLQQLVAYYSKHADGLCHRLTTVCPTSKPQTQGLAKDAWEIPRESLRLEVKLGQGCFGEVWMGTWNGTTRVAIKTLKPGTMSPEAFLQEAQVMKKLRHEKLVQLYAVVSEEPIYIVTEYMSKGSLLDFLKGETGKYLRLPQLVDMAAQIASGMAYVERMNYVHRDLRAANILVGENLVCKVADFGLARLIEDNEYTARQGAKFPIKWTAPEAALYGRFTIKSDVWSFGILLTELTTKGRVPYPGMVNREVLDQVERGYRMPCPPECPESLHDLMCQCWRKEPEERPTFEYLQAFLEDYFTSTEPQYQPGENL
T1 sequence (P08069 31-1367): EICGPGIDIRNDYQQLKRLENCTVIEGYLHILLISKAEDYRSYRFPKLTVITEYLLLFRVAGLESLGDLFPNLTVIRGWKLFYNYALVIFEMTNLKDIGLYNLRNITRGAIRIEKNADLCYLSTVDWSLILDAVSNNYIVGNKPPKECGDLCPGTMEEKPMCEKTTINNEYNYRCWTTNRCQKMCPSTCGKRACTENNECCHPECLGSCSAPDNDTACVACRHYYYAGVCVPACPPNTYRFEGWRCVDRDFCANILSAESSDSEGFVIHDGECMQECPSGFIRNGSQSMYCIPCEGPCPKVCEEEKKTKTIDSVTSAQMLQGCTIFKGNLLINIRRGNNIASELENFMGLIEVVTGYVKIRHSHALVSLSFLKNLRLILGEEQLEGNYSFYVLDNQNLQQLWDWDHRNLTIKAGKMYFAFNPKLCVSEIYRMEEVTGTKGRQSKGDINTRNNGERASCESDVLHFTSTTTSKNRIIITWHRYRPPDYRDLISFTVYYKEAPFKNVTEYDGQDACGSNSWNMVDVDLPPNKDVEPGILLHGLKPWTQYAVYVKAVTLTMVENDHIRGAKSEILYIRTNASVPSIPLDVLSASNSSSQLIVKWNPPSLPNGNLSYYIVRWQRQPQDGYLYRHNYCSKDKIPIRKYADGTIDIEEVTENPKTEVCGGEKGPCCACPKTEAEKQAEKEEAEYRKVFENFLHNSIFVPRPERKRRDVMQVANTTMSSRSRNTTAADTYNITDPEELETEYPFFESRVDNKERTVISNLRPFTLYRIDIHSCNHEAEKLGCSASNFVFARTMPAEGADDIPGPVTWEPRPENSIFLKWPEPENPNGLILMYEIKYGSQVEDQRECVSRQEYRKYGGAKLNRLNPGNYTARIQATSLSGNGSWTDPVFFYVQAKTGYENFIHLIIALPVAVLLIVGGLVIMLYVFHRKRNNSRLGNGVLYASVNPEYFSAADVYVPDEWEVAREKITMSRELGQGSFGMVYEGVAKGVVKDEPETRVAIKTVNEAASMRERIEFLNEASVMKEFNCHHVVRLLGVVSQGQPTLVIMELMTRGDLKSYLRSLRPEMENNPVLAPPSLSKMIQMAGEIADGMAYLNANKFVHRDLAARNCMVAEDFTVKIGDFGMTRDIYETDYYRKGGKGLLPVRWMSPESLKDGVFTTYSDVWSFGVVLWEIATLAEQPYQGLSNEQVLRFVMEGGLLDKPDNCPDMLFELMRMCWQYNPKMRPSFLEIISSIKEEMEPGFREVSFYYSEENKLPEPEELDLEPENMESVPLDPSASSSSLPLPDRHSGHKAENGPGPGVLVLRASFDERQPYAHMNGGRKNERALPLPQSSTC

percent of control kinase binding to immobilized ligand at 3 µM [1]: 100% | percent of control kinase binding to immobilized ligand at 3 µM [2]: 100% | percent of control kinase binding to immobilized ligand at 3 µM [3]: 100% | percent of control kinase binding to immobilized ligand at 3 µM [4]: 96% | percent of control kinase binding to immobilized ligand at 3 µM [5]: 63% | percent of control kinase binding to immobilized ligand at 3 µM [6]: 97% | percent of control kinase binding to immobilized ligand at 3 µM [7]: 66% | percent of control kinase binding to immobilized ligand at 3 µM [8]: 92% | percent of control kinase binding to immobilized ligand at 3 µM [9]: 87% | percent of control kinase binding to immobilized ligand at 3 µM [10]: 100% | percent of control kinase binding to immobilized ligand at 3 µM [11]: 100% | percent of control kinase binding to immobilized ligand at 3 µM [12]: 100% | percent of control kinase binding to immobilized ligand at 3 µM [13]: 87% | percent of control kinase binding to immobilized ligand at 3 µM [14]: 100% | percent of control kinase binding to immobilized ligand at 3 µM [15]: 100% | percent of control kinase binding to immobilized ligand at 3 µM [16]: 89% | percent of control kinase binding to immobilized ligand at 3 µM [17]: 100% | percent of control kinase binding to immobilized ligand at 3 µM [18]: 99% | percent of control kinase binding to immobilized ligand at 3 µM [19]: 100% | percent of control kinase binding to immobilized ligand at 3 µM [20]: 98% | percent of control kinase binding to immobilized ligand at 3 µM [21]: 100%
SMILES: CN(C)CCNC(=O)c1ccc(-c2ccc(-c3ccc(Cl)cc3)n2-c2ccccc2C(F)(F)F)cc1 (single isomer, unassigned) [Atropisomer A-2, 4-[5-(4-chlorophenyl)-1-[2-(trifluoromethyl)phenyl]pyrrol-2-yl]-N-[2-(dimethylamino)ethyl]benzamide]
